Results from patent publication US20190336484A1, “IL-8 INHIBITORS FOR USE IN THE TREATMENT OF SOME UROLOGICAL DISORDERS” (DOMPÉ FARMACEUTICI S.P.A., priority 2017, published 2019).

Tests used:
RWPE-1 cells = experiment: in vitro inflammatory model of prostatitis: ROS/RNS production (DCFH-DA assay) in RWPE-1 cells exposed to conditioned medium from activated U-937; format: cell-based, human; conditions: then CM from activated U-937, measured after 3 hours
Source text: Characterization of Compound 1 on an in vitro inflammatory model of prostatitis.
In the aim of characterizing the Compound 1 on an in vitro inflammatory prostatitis model, human prostatic normal cells RWPE-1 (ATCC, lot number 61840713) are put in communication with activated macrophages; thus it induces an inflammatory micro-environment that enhances the production of reactive oxygen and nitrogen species (Debelec-Butuner et al, Mol. Carcinogen. 2014, 53:85-97).
Human U-937 monocytes (ATCC, lot number 61795631) seeded at 50.000 cells/ml were differentiated with phorbol acetate ([…]) for 16 h. In order to stimulate cytokines production, lipopolysaccharide (LPS) was added (10 ng/ml for 24 h) and the conditioned medium (CM) collected.
After 24 h in culture, RWPE-1 cells were treated with Compound 1 (0.1, 1 and 10 μM) and then exposed to CM from activated U-937. After 3 hours, reactive oxygen species (ROS) and Reactive Nitrogen species (RNS) were quantitatively measured by means of 2′,7′-dichlorodihydrofluorescein diacetate (DCFH-DA) assay. […] DCF is a highly fluorescent compound which can be detected by fluorescence spectroscopy with maximum excitation and emission spectra of 495 nm and 529 nm respectively (Games et al, J. Biochem. Biophys. Methods 2005, 65:45-80).

pharmacokinetic profile = conditions: in vivo
Source text: In fact, as it will be illustrated in the Experimental section, Compd.

[1] = tested on: testosterone-induced prostate hypertrophy (TBPH); experiment: Testosterone-induced prostate hypertrophy (TBPH), cystometry / urodynamic parameters; format: in vivo, Sprague-Dawley male rats; conditions: 20 mg/kg oral twice daily, 5 days a week, 4 weeks
Source text: The study was undertaken to test the effects of chronic oral administration of Compound 1 in rats with dysfunctional bladders in an experimental model of TBPH involving an estrogen-associated inflammation (Tatemichi et al, J Urol 2006, 176:1236-1241).
(§1) A total 26 Sprague-Dawley male rats (250-270 g) were used for the study, according to the regulations of the Animal Ethics Committee (IACUC n.631). The rats were maintained under standard laboratory conditions at 12:12 light/dark cycle with free access to food pellets and tap water.
BPH was induced treating animals once a week for 4 weeks with intramuscular hormones corresponding to testosterone enanthate (Geymonat, 12.5 mg)+17β-estradiol-velerate (SIGMA, 0.125 mg) in sesame oil. […]
The conscious rats were placed in metabolic cages without restraint and the bladder catheters were connected via a T-tube to a pressure transducer (P23 DC; Statham Instruments Inc., Oxnard, Calif., USA) and a microinjection pump (CMA 100; Carnegie Medicine Aft Solna, Sweden). Micturition volumes were recorded with a fluid collector connected to a force displacement transducer (FT 03 D, Grass Instrument Co., Quincy, Mass., USA). […] Pressures and micturition volumes were recorded continuously with Acq Knowledge 3.8.1 software and a MP100 data acquisition system (Biopac Syst. Inc. Santa Barbara, Calif.) connected to a Grass polygraph (Model 7E, Grass Instrument Co).

[2] = tested on: experimental autoimmune chronic prostatitis (EACP); experiment: Experimental autoimmune chronic prostatitis (EACP), mechanical allodynia by Von Frey test; format: in vivo, Lewis male rats; conditions: 20 mg/kg oral twice daily
Source text: The experimental autoimmune chronic prostatitis (EACP) can be easily generated in rats by specific immunization with syngeneic rat prostate homogenate. As a consequence of the strong inflammatory reaction, pelvic pain is generated, as already described (Zhang et al, Scand J Immunol 2011, 73:546-553; Zhang et al, Prostate 2012, 72:90-99; Wang et al, Int Urol Nephrol 2015, 47:307-316; Rudick et al, Am J Physiol Regul Integr Comp Physiol 2008, 294:R1268-1275).
as §1, with “of 36 Lewis” for “26 Sprague-Dawley”, “g) from Charles River Italy” for “g)”
Each animal was initially immunized with 2 mg of syngeneic prostate protein, diluted in saline, emulsified with complete Freund adjuvant containing 2 mg/ml of H37a mycobacterium (BD). Emulsion was produced by vortexing the mix for 15 min or till obtaining appropriate viscosity. A total volume of 0.2 mL in two sites was injected into each anesthetized rat at the dorsal tail base. A booster immunization was then repeated 13 days after the first injection. […]
Effect of pelvic pain was evaluated 16 and 26 days after immunization by testing mechanical allodynia with Von Frey test. […]

CXCR1/CXCR2 = conditions: Bertini R. et al, Br J Pharmacol 2012; cited from earlier work

For `C[C@H](C(=O)[O-])c1ccc(Nc2nc(C(F)(F)F)cs2)cc1.[Na+]` [Compound 1, sodium salt of (2S)-2-(4-{[4-(trifluoromethyl)-1,3-thiazol-2-yl]amino}phenyl) propanoic acid], the “total ROS and RNS production induced by conditioned medium (CM)” value (RWPE-1 cells; Compound 1 at 1 μM) was “completely reverted the CM effect”, the “total ROS and RNS production induced by conditioned medium (CM)” value (RWPE-1 cells; Compound 1 at 10 μM) was “more modest effect in comparison to the concentration 1 μM” and the “absorption (plasma)” value (pharmacokinetic profile) was “rapid absorption”. For the same compound, the “post void residual volume (PVR)” value ([1]; FIG. 4) was “numerical trend in reducing”, the “area under pressure/time curve (AUC, detrusor over activity)” value ([1]; FIG. 5) was “numerical trend in reducing” and the “mechanical hypersensitivity and allodynia (abdomen/pelvic withdrawal threshold, Von Frey)” value ([2]; day 16 and 26 after immunization, compared to vehicle) was “partly decreased the mechanical hypersensitivity and allodynia reaching the statistical significance at day 26”. The “applied force eliciting response in Von Frey test, fold higher” value ([2]; vehicle group stimulated by 19 g, FIG. 3) was 2,8 fold.
In the case of `C[C@@H](C(=O)NS(C)(=O)=O)c1ccc(OS(=O)(=O)C(F)(F)F)cc1.[Na]` [Compd.2, sodium salt of R(−)-2-[(4′-trifluoromethanesulfonyloxy)phenyl]-N-methanesulfonyl propionamide], the CXCR1/CXCR2 inhibitor character (CXCR1/CXCR2) is listed as “potent and selective dual CXCR1/CXCR2 non-competitive allosteric inhibitor”.
